From paper PMC3187749, “Discovery of Diverse Small Molecule Chemotypes with Cell-Based PKD1 Inhibitory Activity” (PLoS ONE, 2011)
Read-outs that look alike come from different tables or passages of the source.

Legend:
[1] = molecular target: T1, endogenous PKD1 (Ser916 phosphorylation) in LNCaP prostate cancer cells (Homo sapiens, UniProt Q15139); assay: Western blot of PMA-induced phospho-Ser916-PKD1 in LNCaP cells; type: cell-based; conditions: LNCaP cells; for Concentration dependence of inhibition of PMA-induced endogenous PKD1 activity: Western blot; for inhibition at 50 µM: read-out: Inhibition of phosphorylation of Ser916-PKD1
T1 construct: phosphorylation of endogenously expressed PKD1 Ser^916; endogenous in cells; host or cells: LNCaP prostate cancer cells
T1 sequence (Q15139 1-912): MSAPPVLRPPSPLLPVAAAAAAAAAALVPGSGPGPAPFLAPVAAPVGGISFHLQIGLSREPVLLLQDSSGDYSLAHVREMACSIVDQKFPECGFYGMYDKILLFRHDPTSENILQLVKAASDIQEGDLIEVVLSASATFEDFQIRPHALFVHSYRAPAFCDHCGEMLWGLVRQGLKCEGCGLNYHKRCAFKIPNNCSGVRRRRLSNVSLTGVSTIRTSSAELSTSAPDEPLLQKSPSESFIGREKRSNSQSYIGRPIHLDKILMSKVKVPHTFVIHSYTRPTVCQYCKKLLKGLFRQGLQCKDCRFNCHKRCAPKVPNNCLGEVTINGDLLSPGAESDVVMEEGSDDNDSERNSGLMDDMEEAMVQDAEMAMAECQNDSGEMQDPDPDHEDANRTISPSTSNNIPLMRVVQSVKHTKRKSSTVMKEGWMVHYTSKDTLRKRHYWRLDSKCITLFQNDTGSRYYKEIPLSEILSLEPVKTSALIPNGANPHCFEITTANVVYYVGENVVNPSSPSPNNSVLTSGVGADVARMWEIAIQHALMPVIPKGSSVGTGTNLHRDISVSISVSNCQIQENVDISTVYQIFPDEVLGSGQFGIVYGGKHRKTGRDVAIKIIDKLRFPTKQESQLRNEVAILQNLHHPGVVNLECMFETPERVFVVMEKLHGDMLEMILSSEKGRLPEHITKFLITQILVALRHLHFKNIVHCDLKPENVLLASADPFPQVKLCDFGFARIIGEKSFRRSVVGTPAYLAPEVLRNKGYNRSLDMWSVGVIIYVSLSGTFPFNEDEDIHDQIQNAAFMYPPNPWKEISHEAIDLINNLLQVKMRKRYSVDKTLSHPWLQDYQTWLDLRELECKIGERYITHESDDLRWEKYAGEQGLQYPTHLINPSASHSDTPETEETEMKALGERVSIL
Description: Briefly, prostate cancer cells (LNCaP) were exposed to test compounds. Cells were lysed in buffer (200 mM Tris-HCl, pH 7.4, 100 µM 4-(2-aminoethyl) benzenesulfonyl fluoride, 1 mM EGTA, and 1% Triton X-100) and cell lysates were subjected to SDS-PAGE then electrotransferred to nitrocellulose membranes. Membranes were blocked with 5% nonfat milk in Tris-buffered saline. Membranes were probed with a primary antibody then followed by a secondary anti-mouse or anti-rabbit secondary antibody conjugated to horseradish peroxidase (1∶1000, Bio-Rad). Bands were visualized by the enhanced chemiluminescence Western blotting detection system (Amersham Biosciences). The primary antibodies included p-S916-PKD1 antibody (Millipore) and GAPDH (Enzo Life Sciences, Plymouth Meeting, PA).
[…] Whole cell lysates were immunoblotted for phosphorylated Ser^916-PKD1 with GAPDH serving as a loading control.

[2] = molecular target: T2, recombinant human PKD1 (Homo sapiens, UniProt Q15139); conditions: cited from earlier work
T2 construct: His; purchased Millipore (Billerica, MA)
T2 sequence (Q15139 1-912): T1 sequence (Q15139 1-912)

[3] = molecular target: T2, recombinant human PKD1; assay: In vitro radiometric PKD1 kinase assay; type: biochemical
Description: Kinase reactions were initiated with the addition of ATP (50 µM ATP, 1.0 µCi γ-^33P-ATP; Perkin Elmer, Boston, MA) and incubated for 20 min at 30°C. Twenty-five µL of the reaction was spotted onto Whatman P81 filter paper (Whatman Inc., Clifton, NJ). Filter papers were then washed three times in 0.5% phosphoric acid, air-dried, and counted using an LS6500 multi-purpose scintillation counter (Beckman Coulter, Fullerton, CA). IC50 determinations were performed using GraphPad Prism software 5.0. Radiometric PKD2 and PKD3 in vitro kinase assays were performed as previously described.

[4] = molecular target: T2, recombinant human PKD1; assay: ATP competition studies (radiometric PKD1 assay, Michaelis-Menten/Lineweaver-Burk); type: biochemical; conditions: PKD1, ATP 12.5–1000 µM
Description: For ATP competition studies, recombinant human PKD1 (1 ng/µL) and Syntide-2 substrate peptide (200 ng/µl) in kinase buffer were incubated with a concentration range of test compound. Kinase reactions were initiated with a concentration range of cold ATP (12.5–1000 µM) supplemented with 1.0 µCi γ-^33P-ATP (Perkin Elmer) and processed as described above. Enzyme inhibition was analyzed and visualized using the Michaelis-Menten and Lineweaver-Burk functions of GraphPad Prism 5.0.

[5] = test system: T3, recombinant human protein kinase D1 (PKD1); assay: IMAP-based PKD1 FP high throughput screening assay; type: biochemical; conditions: LOPAC screen, 10 µM, duplicate
T3 construct: His; purchased Millipore (Billerica, MA)
Description: An HTS IMAP-based PKD1 FP assay was developed and used to screen the PMLSC library to identify primary active compounds as previously described, [19]. In brief, the basis for the in vitro homogeneous IMAP PKD1 FP assay is the interaction of nanoparticles with covalent phosphorylated moieties generated when active PKD1 enzyme phosphorylates small, fluorescently labeled substrate peptides. The PKD1 kinase reactions were assembled stepwise by the addition of 3× substrate/ATP (300 nM/60 µM), compound and PKD1 enzyme (0.18 units/mL). Positive (MAX) and negative (MIN) control kinase reactions contained DMSO (1%) and Gö6976 (1 µM) or H-89 (100 µM) in 1% DMSO (final concentrations), respectively. All assay plates were setup in a standard 384-well configuration as previously described and all reagents were prepared in kinase reaction buffer. Kinase reactions were incubated for 90 min at room temperature and then were stopped with the addition of 18 µL of IMAP binding reagents (1∶400) in 1× binding buffer A (proprietary composition, Molecular Devices). These nanoparticles associate with substrate peptide phospho groups creating a larger phosphosubstrate–nanoparticle complex. The phosphosubstrate–nanoparticle binding can be quantified and is expressed as millipolarization (mP) units. […] Assay plates were centrifuged at 50 g for 1 min, incubated at room temperature for 2 hr and FP data were collected on a Molecular Devices SpectraMax M5 (excitation A485/emission A525). This assay was also used in secondary concentration response studies to initially determine IC50 concentrations of compounds. IC50 determinations were performed using GraphPad Prism software 5.0 (La Jolla, CA).
A PKD1 IMAP FP assay was developed and optimized to identify small molecule inhibitors of PKD1 kinase activity. Using this assay system, we screened the LOPAC and PMLSC compound sets (196,425 total compounds) for novel PKD inhibitory chemotypes. […] For the LOPAC screen each compound was evaluated in duplicate at a single concentration (10 µM). […]

[6] = test system: CDK7; assay: IMAP-based CDK7 counter screen; type: biochemical; conditions: concentrations up to 50 µM
Text: (§1) It was also gratifying that, in general, our novel cell active PKD1 inhibitors appeared to be less promiscuous than PKD1 inhibitors having minimal to no cellular PKD1 inhibitory activity (Table 1). For example, CIDs 755673 and 1893668 display additional confirmed activity in six and seven, respectively, PubChem bioassays while CID 2011756 has confirmed activity in only one additional PubChem bioassay. […] In contrast, the remaining chemotypes registered as confirmed actives in 2–43 additional bioassays (Table 1). Additional chemical similarity searching, focusing on our four novel cell-active PKD1 inhibitory chemotypes, using MetaDrug also supports a comparative lack of promiscuity of these compounds.

[7] = test system: AKT; assay: IMAP-based AKT counter screen; type: biochemical; conditions: concentrations up to 50 µM
Text: as §1

[8] = test system: PLK1; assay: IMAP-based PLK1 counter screen; type: biochemical; conditions: concentrations up to 50 µM
Text: as §1

[9] = 50 µM compound 45 min, then PMA 10 nM 20 min
[10] = radiometric PKD1 kinase assay, mean ± range or SD of 2–4 independent experiments, read-out: In vitro PKD1 IC50

## O=C1NCCCc2c1oc1ccc(O)cc21 [CID 755673]
[1]; [9]
  Inhibition of phosphorylation of Ser916-PKD1 (in words): confirmed as a cell active PKD1 inhibitor
[1]
  Concentration dependence of inhibition of PMA-induced endogenous PKD1 activity: concentration-dependent inhibition
[2]; previously determined
  Mechanism of Action (with respect to ATP): Non-ATP competitive

## Clc1cncc(Cl)c1NNc1ccncc1 [CID 4438738]
[3]; [10]
  IC50: 3.3 ± 0.1 µM
[4]
  Mechanism of Action (with respect to ATP): ATP competitive

## O=S(=O)(NCCNC/C=C/c1ccc(Br)cc1)c1cccc2cnccc12 [H89]
[5]
  Inhibition of control signal (primary active): ≥ 50%

## NC(=O)c1cc(-c2ccnc(NC3CCCCC3)c2)nc(N2CCNCC2)c1 [BKPDi]
[2]; known mechanism of action of the PKD inhibitor BKPDi, listed as BPKDi
  Mechanism of Action (with respect to ATP): ATP competitive

## NC(=O)c1cn([C@@H]2O[C@H](CO)[C@@H](O)[C@H]2O)c2ncnc(N)c12 [CID 9549170, sangivamycin, reference compound]
[3]
  IC50: 0.4 ± 0.3 µM
[4]
  Mechanism of Action (with respect to ATP): ATP competitive

## CC1(C)Oc2ccc3ccc(=O)oc3c2-c2cn[nH]c21 [CID 646236]
[3]; [10]
  IC50: 1.1 ± 0.1 µM
[4]
  Mechanism of Action (with respect to ATP): ATP competitive

## Nc1nc2ccc([N+](=O)[O-])c(N)c2s1 [CID 5086667]
[1]; [9]
  Inhibition of phosphorylation of Ser916-PKD1 (in words): some cellular inhibition
[4]
  Mechanism of Action (with respect to ATP): ATP-competitive inhibitor
[4]; listed as 5086667
  Mechanism of Action (with respect to ATP): ATP competitive

## O=C1c2ccccc2-c2onc3ccc(NCCCn4ccnc4)c1c23 [CID 663844]
[3]; [10]
  IC50: 4.8 ± 0.6 µM
[1]; [9]
  Inhibition of phosphorylation of Ser916-PKD1 (in words): little or no inhibition

## CC1CNCCN1S(=O)(=O)c1cccc2cnccc12 (stereo not shown) [H7]
[5]
  Inhibition of control signal (primary active): ≥ 50%

## CCN1/C(=C/C(C)=O)Sc2ccc(OC)cc21 [CID 1893668, (1Z)-1-(3-ethyl-5-methoxy-1,3-benzothiazol-2-ylidene)propan-2-one, reference compound]
[3]; [10]
  IC50: 1.7 ± 0.3 µM
[1]; [9]
  inhibition at 50 µM: > 50%
[1]; PMA stimulation, n = 3, read-out: Cellular EC50 (phospho-Ser916-PKD1)
  EC50: 52 ± 14 µM
[1]
  Concentration dependence of inhibition of PMA-induced endogenous PKD1 activity: concentration-dependent inhibition

## (6Z)-6-[4-(3-aminopropylamino)-6-methyl-1H-pyrimidin-2-ylidene]cyclohexa-2,4-dien-1-one [CID 5389142]
[1]; [9]
  Inhibition of phosphorylation of Ser916-PKD1: greater than 50%
[1]
  Concentration dependence of inhibition of PMA-induced endogenous PKD1 activity: concentration-dependent inhibition
[4]
  Mechanism of Action (with respect to ATP): ATP competitive
[6]
  CDK7 kinase inhibition: no kinase inhibition
[7]
  AKT kinase inhibition: no kinase inhibition
[8]
  PLK1 kinase inhibition: no kinase inhibition

## CNCCNS(=O)(=O)c1cccc2cnccc12 [H8]
[5]
  Inhibition of control signal (primary active): ≥ 50%

## CCC1=NNc2cccc3c(OC)ccc1c23 [CID 2876479]
[3]; [10]
  IC50: 2.2 ± 1.8 µM
[1]; [9]
  Inhibition of phosphorylation of Ser916-PKD1 (in words): some cellular inhibition
[4]
  Mechanism of Action (with respect to ATP): ATP competitive

## NC(N)=NC(=O)c1nc(Cl)c(N)nc1N [CID 16230, amiloride chloride, reference compound]
[3]; [10]
  IC50: 2.1 ± 0.15 µM
[1]; [9]
  Inhibition of phosphorylation of Ser916-PKD1 (in words): little or no inhibition
  inhibition at 50 µM: < 50%

## CC1Cc2ccccc2N1c1ncnc(N)c1[N+](=O)[O-] (stereo not shown) [CID 2958734]
[3]; [10]
  IC50: 6.1 ± 0.2 µM
[1]; [9]
  Inhibition of phosphorylation of Ser916-PKD1 (in words): little or no inhibition
[4]
  Mechanism of Action (with respect to ATP): ATP competitive
